pEC50: −log10 of the molar value. Like-named read-outs stand apart in the source and are kept apart here.
Tested on: HIV-1 single-round infectious reporter virus
Experiment: Single-round infectious HIV-1 luciferase reporter virus infection of HeLa CD4 cells
Assay type: cell-based
Settings: Human immunodeficiency virus 1, HeLa, 72 h
Protocol: • Virus production—Human embryonic Kidney cell line, 293T, was propagated in Dulbecco's Modified Eagle Medium (Invitrogen, Carlsbad, Calif.) containing 10% fetal Bovine serum (FBS, Sigma, St. Louis, Mo.). • Virus infection—Human epithelial cell line, HeLa, expressing the HIV-1 receptor CD4 was propagated in Dulbecco's Modified Eagle Medium (Invitrogen, Carlsbad, Calif.) containing 10% fetal Bovine serum (FBS, Sigma, St. Louis, Mo.) and supplemented with 0.2 mg/mL GENETICIN® (Invitrogen, Carlsbad, Calif.). • Virus—Single-round infectious reporter virus was produced by co-transfecting human embryonic Kidney 293 cells with an HIV-1 envelope DNA expression vector and a proviral cDNA containing an envelope deletion mutation and the luciferase reporter gene inserted in place of HIV-1 nef sequences (Chen et al., Ref. 41). Transfections were performed using Lipofectamine Plus reagent as described by the manufacturer (Invitrogen, Carlsbad, Calif.). Experimental Procedure:
1. HeLa CD4 cells were plated in 96 well plates at a cell density of 1×10^4 cells per well in 100 μl Dulbecco's Modified Eagle Medium containing 10% fetal Bovine serum and incubated overnight.
2. Compound was added in a 2 μl dimethylsulfoxide solution, so that the final assay concentration would be ≦10 μM.
3. 100 μl of single-round infectious reporter virus in Dulbecco's Modified Eagle Medium was then added to the plated cells and compound at an approximate multiplicity of infection (MOI) of 0.01, resulting in a final volume of 200 μl per well.
4. Virally-infected cells were incubated at 37° C., in a CO2 incubator, and harvested 72 h after infection.
5. Viral infection was monitored by measuring luciferase expression from viral DNA in the infected cells using a luciferase reporter gene assay kit, as described by the manufacturer (Roche Molecular Biochemicals, Indianapolis, Ind.). Infected cell supernatants were removed and 50 μl of lysis buffer was added per well. After 15 minutes, 50 μl of freshly-reconstituted luciferase assay reagent was added per well. Luciferase activity was then quantified by measuring luminescence using a Wallac MICROBETA® scintillation counter.
6. The percent inhibition for each compound was calculated by quantifying the level of luciferase expression in cells infected in the presence of each compound as a percentage of that observed for cells infected in the absence of compound and subtracting such a determined value from 100.
7. An EC50 provides a method for comparing the antiviral potency of the compounds of this disclosure. The effective concentration for fifty percent inhibition (EC50) was calculated with the Microsoft Excel Xlfit curve fitting software. For each compound, curves were generated from percent inhibition calculated at 10 different concentrations by using a four parameter logistic model (model 205). Table 1 is the key for the data in Table 2.

[1] = read-out: EC50 Group from Table 1

SMILES	pEC50 [1]	pEC50
COCc1ncn(-c2ncc(OC)c3c(C(=O)C(=O)N4CCn5c(nnc5-c5ccccc5)C4)c[nH]c23)n1 [Compound B4]	> 6.30	–
COc1cnc(-n2cnc(C)n2)c2[nH]cc(C(=O)C(=O)N3CCc4c(cnn4-c4ncccn4)C3)c12 [Compound L1]	> 6.30	–
COc1nc2n(c1-c1ccccc1)CCN(C(=O)C(=O)c1c[nH]c3c(-n4cnc(C)n4)ncc(OC)c13)C2 [Compound H1a]	> 6.30	–
COc1cnc(-n2cnc(C)n2)c2[nH]cc(C(=O)C(=O)N3CCn4c(-c5cccnc5)cnc4C3)c12 [Compound F2]	> 6.30	–
COc1cnc(-n2cnc(C)n2)c2[nH]cc(C(=O)C(=O)N3CCn4c(nnc4-c4cccc(C)c4)C3)c12 [Compound C8]	> 6.30	–
COc1cnc(-n2cnc(C)n2)c2[nH]cc(C(=O)C(=O)N3CCn4c(nnc4-c4ccccc4C(N)=O)C3)c12 [Compound C4]	–	< 6.30
COc1cnc(-n2cnc(C)n2)c2[nH]cc(C(=O)C(=O)N3CCn4c(nc(Br)c4-c4ccccc4)C3)c12 [Compound G2]	> 6.30	–
COc1cnc(-n2cnc(C)n2)c2[nH]cc(C(=O)C(=O)N3CCn4c(-c5ccc(O)cc5)cnc4C3)c12 [Compound F3]	> 6.30	–
O=C(C(=O)N1CCn2c(nc(C(F)(F)F)c2-c2ccccc2)C1)c1c[nH]c2c(-n3ccnn3)ncc(F)c12 [Compound I2]	> 6.30	–
COc1nc2n(c1-c1ccccn1)CCN(C(=O)C(=O)c1c[nH]c3c(-n4cnc(C)n4)ncc(OC)c13)C2 [Compound H1b]	> 6.30	–
COc1ccccc1-c1nnc2n1CCN(C(=O)C(=O)c1c[nH]c3c(-n4cnc(C)n4)ncc(OC)c13)C2 [Compound C5]	> 6.30	–
COc1cnc(-n2cnc(C)n2)c2[nH]cc(C(=O)C(=O)N3CCn4c(-c5ccccc5)cnc4C3)c12 [Compound D1]	> 6.30	–
O=C(C(=O)N1CCn2c(nnc2-c2ccccc2)C1)c1c[nH]c2c(-n3ccnn3)ncc(F)c12 [Compound B3]	> 6.30	–
COc1cnc(-n2cnc(C)n2)c2[nH]cc(C(=O)C(=O)N3CCn4c(nnc4-c4ccccc4)C3)c12 [Compound B1]	–	9.02
O=C(C(=O)N1CCn2c(nnc2-c2ccccc2)C1)c1c[nH]c2cccc(F)c12 [Compound A1]	–	6.66
COc1cnc(-c2cc(CO)[nH]n2)c2[nH]cc(C(=O)C(=O)N3CCn4c(-c5ccccc5)cnc4C3)c12 [Compound J1]	–	10.30
COc1cnc(-n2cnc(C)n2)c2[nH]cc(C(=O)C(=O)N3CCN4C(c5ccccn5)=NCC4C3)c12 (stereo not drawn) [Compound O2]	> 6.30	–
COc1cnc(-n2ccnn2)c2[nH]cc(C(=O)C(=O)N3CCn4c(nnc4-c4ccccc4)C3)c12 [Compound B2]	> 6.30	–
COc1cnc(-n2cnc(C)n2)c2[nH]cc(C(=O)C(=O)N3CCn4c(-c5ccccn5)cnc4C3)c12 [Compound E1]	> 6.30	–
COc1cnc(-n2ccnn2)c2[nH]cc(C(=O)C(=O)N3CCn4c(-c5ccccc5)cnc4C3)c12 [Compound D2]	–	10.30
COc1cnc(-n2cnc(C)n2)c2[nH]cc(C(=O)C(=O)N3CCc4c(cnn4-c4cnccn4)C3)c12 [Compound L5]	> 6.30	–
COc1cnc(-n2cnc(C)n2)c2[nH]cc(C(=O)C(=O)N3CCn4c(-c5ccccc5C#N)cnc4C3)c12 [Compound F5]	–	7.00
COc1cnc(-n2cnc(C)n2)c2[nH]cc(C(=O)C(=O)N3CCc4c(c(-c5ccccc5)nn4-c4ccccc4)C3)c12 [Compound K1]	–	8.59

SMILES	pEC50 [1]	pEC50
COc1cnc(-n2cnc(C)n2)c2[nH]cc(C(=O)C(=O)N3CCn4c(nnc4-c4ccccc4O)C3)c12 [Compound C7]	–	8.72
COc1cnc(-n2cnc(C)n2)c2[nH]cc(C(=O)C(=O)N3CCn4c(nnc4-c4ccccn4)C3)c12 [Compound C3]	> 6.30	–
O=C(C(=O)N1CCN2C(c3ccccc3)=NCC2C1)c1c[nH]c2c(-n3ccnn3)ncc(F)c12 (stereo not drawn) [Compound O1]	–	7.89
COc1cnc(-c2cc(C(C)(C)O)[nH]n2)c2[nH]cc(C(=O)C(=O)N3CCn4c(-c5ccccc5)cnc4C3)c12 [Compound J2]	> 6.30	–
COc1cnc(-c2cncnc2)c2[nH]cc(C(=O)C(=O)N3CCn4c(-c5ccccc5)cnc4C3)c12 [Compound D3]	> 6.30	–
COc1ccc(-c2cnc3n2CCN(C(=O)C(=O)c2c[nH]c4c(-n5cnc(C)n5)ncc(OC)c24)C3)cn1 [Compound F4]	> 6.30	–
COc1cnc(-n2cnc(C)n2)c2[nH]cc(C(=O)C(=O)N3CCn4c(nnc4-c4ccccc4F)C3)c12 [Compound C2]	–	9.54
COc1cnc(-n2cnc(C)n2)c2[nH]cc(C(=O)C(=O)N3CCc4c(ncn4-c4ccccn4)C3)c12 [Compound M2]	> 6.30	–
COc1cnc(-n2cnc(C)n2)c2[nH]cc(C(=O)C(=O)N3CCn4c(-c5cccc(O)c5)cnc4C3)c12 [Compound F1]	> 6.30	–
COc1cnc(-n2cnc(C)n2)c2[nH]cc(C(=O)C(=O)N3CCn4c(nc(C)c4-c4ccccn4)C3)c12 [Compound H2]	–	9.00
COc1cnc(-n2cnc(C)n2)c2[nH]cc(C(=O)C(=O)N3CCc4c(cnn4-c4ccccc4)C3)c12 [Compound L3]	–	10.52
COc1cnc(-n2cnc(C)n2)c2[nH]cc(C(=O)C(=O)N3CCn4c(cnc4-c4ccccc4)C3)c12 [Compound N1]	–	10.22
COc1cnc(-n2cnc(C)n2)c2[nH]cc(C(=O)C(=O)N3CCc4c(cnn4-c4cc(C)nc(C)n4)C3)c12 [Compound L2]	–	6.48
COc1cnc(-n2cnc(C)n2)c2[nH]cc(C(=O)C(=O)N3CCn4c(nc(C(F)(F)F)c4-c4ccccn4)C3)c12 [Compound I3]	–	9.23
COc1cnc(-n2cnc(C)n2)c2[nH]cc(C(=O)C(=O)N3CCn4c(cnc4-c4ccc(F)cc4F)C3)c12 [Compound N2]	> 6.30	–
COc1cnc(-n2cnc(C)n2)c2[nH]cc(C(=O)C(=O)N3CCn4c(nc(Cl)c4-c4ccccc4)C3)c12 [Compound G1]	> 6.30	–
COc1cnc(-n2cnc(C)n2)c2[nH]cc(C(=O)C(=O)N3CCn4c(nc(C(F)(F)F)c4-c4ccccc4)C3)c12 [Compound I1]	> 6.30	–
COc1cnc(-n2cnc(C)n2)c2[nH]cc(C(=O)C(=O)N3CCn4c(-c5ccncc5)cnc4C3)c12 [Compound F6]	–	7.87
COc1cnc(-n2cnc(C)n2)c2[nH]cc(C(=O)C(=O)N3CCc4c(cnn4-c4ccccn4)C3)c12 [Compound L4]	> 6.30	–
COc1cnc(-n2cnc(C)n2)c2[nH]cc(C(=O)C(=O)N3CCc4c(ncn4-c4ccccc4)C3)c12 [Compound M1]	–	10.15
COc1cnc(-n2cnc(C)n2)c2[nH]cc(C(=O)C(=O)N3CCn4c(nnc4-c4ccccc4Cl)C3)c12 [Compound C6]	> 6.30	–
COc1cnc(-n2cnc(C)n2)c2[nH]cc(C(=O)C(=O)N3CCn4c(nnc4-c4ccccc4C)C3)c12 [Compound C1]	–	7.93

From US7960406B2, “Diketo substituted pyrrolo[2,3-c] pyridines” (priority 2008, dated 2011)
